Data from patent publication US10433539B2, “Composition and solution with controlled calcium ion level, and related method and use for reperfusion” (TEVOSOL, INC., priority 2014, dated 2019).

System: harvested pig hearts
Settings: 500 μmol/L lidocaine in cardioplegic compositions, combined data of Part 1 and Part 2 (1, 3, 5 hours)
Excerpt: Part 1: The next study assessed if there were potential incremental benefits to increasing the duration of reperfusion of harvested donor hearts with a mildly acidic hypocalcemic oxygenated cardioplegic composition.
The sample solutions used for these tests were the same as Sample solutions IIIC described above.

SMILES: CCN(CC)CC(=O)Nc1c(C)cccc1C [lidocaine]
- effect of lidocaine concentration on donor heart myocardial function: debilitating effects
